Test [1] deals with differentiated iCasp9-positive MSCs. The experiment in a line: Apoptosis of differentiated iCasp9 MSCs after CID (TUNEL, cell density). Conditions: adipocytic differentiation; 50 nM CID; 24 hours; from 584.
Test [2] has as its system F-Casp9M.I.GFPhigh-transduced T cells. The experiment in a line: Annexin V/7-AAD staining of iCasp9M GFPhigh T cells after CID. Format: cell-based, human. As for the experimental part: CID (AP20187; ARIAD Pharmaceuticals) at indicated concentrations was added to transfected 293T cells or transduced CTLs. Adherent and nonadherent cells were harvested and washed with annexin binding buffer (BD Pharmingen, San Jose, Calif.). Cells were stained with annexin-V and 7-amino-actinomycin D (7-AAD) for 15 minutes according to the manufacturer's instructions (BD Pharmingen). Within 1 hour after staining, cells were analyzed by flow cytometry using CellQuest software (Becton Dickinson).
A representative example of 3 separate experiments is shown.
For clinical applications therefore, versions of the expression constructs with selectable markers that allow selection for high copy number, high levels of expression, or both high copy number and high levels of expression may be desirable. […] The dose response remained unchanged for at least 4 weeks after transduction.

In a further test the test system is MT-2 cells. The experiment in a line: CID-induced apoptosis (annexin V) in transduced MT-2 cells. Format: cell-based, human. Conditions: 10 nM CID for 8 hours.
A further test deals with virus-specific T cells. The experiment in a line: AP20187 on allostimulated gene-modified cells, pentamer analysis of virus-specific T cells. Format: cell-based, human. The conditions noted are these: 10 nM; after 4 days reactivation with allogeneic PBMC. As for the experimental part:
In some experiments, cells also were cultured for 3 weeks post transduction and stimulated with 30G-irradiated allogeneic PBMC at a responder:stimulator ratio of 1:1. After 4 days of co-culture, a portion of cells was treated with 10 nM AP20187. Killing was measured by annexin V/7-AAD staining at 24 hours, and the effect of dimerizer on bystander virus-specific T cells was assessed by pentamer analysis on AP20187-treated and untreated cells.
An observation of note was that many virus-specific T cells were spared when dimerizer was used to deplete gene-modified cells that have been re-activated with allogeneic PBMC, rather than by non-specific mitogenic stimuli. […] Gene-modified allodepleted cells were maintained in culture for 3 weeks post-transduction to allow transgene down-modulation. Cells were stimulated with allogeneic PBMC for 4 days, following which a portion was treated with 10 nM AP20187.
The frequency of EBV-specific T cells and CMV-specific T cells were quantified by pentamer analysis before allostimulation, after allostimulation, and after treatment of allostimulated cells with dimerizer. The percentage of virus-specific T cells decreased after allostimulation. Following treatment with dimerizer, virus-specific T cells were partially and preferentially retained.

In another test the test system is Jurkat cells. The experiment in a line: CID-induced apoptosis (annexin V) in transduced Jurkat cells. The class given is cell-based, human. Conditions: 10 nM CID for 8 hours.
The test system of test [3] is iCasp9M-transduced EBV-CTLs. The experiment in a line: CID-induced elimination of GFP+ iCasp9M-transduced EBV-CTLs (flow cytometry). The class given is cell-based, human. Background: Flow cytometry measures light scatter and fluorescence of single cells or particles in a stream.
Another test concerns iCasp9-transduced MSCs. The experiment in a line: Apoptosis of iCasp9-ΔCD19 transduced undifferentiated MSCs after CID (annexin V/7-AAD).
The mark [4] stands for this setting: T cells selected for high expression, overnight 10 nM CID, mean.
[5] abbreviates: representative example of 3 experiments.

The values below come from patent US20220125837A1, “METHODS FOR CONTROLLED ELIMINATION OF THERAPEUTIC CELLS” (Bellicum Pharmaceuticals, Inc., priority 2014, published 2022).

As to `CC[C@H](C(=O)N1CCCC[C@H]1C(=O)O[C@H](CCc1ccc(OC)c(OC)c1)c1cccc(OCC(=O)NCC(CNC(=O)COc2cccc([C@@H](CCc3ccc(OC)c(OC)c3)OC(=O)[C@@H]3CCCCN3C(=O)[C@@H](CC)c3cc(OC)c(OC)c(OC)c3)c2)CN(C)C)c1)c1cc(OC)c(OC)c(OC)c1` [AP20187], the “cell density after CID” value in test [1] is on record as less than 14 cells/mm2. Besides, in test [2] (setting [4]), the “apoptotic (annexin-V+/7-AAD−) phenotype” value was 64% and the “necrotic (annexinV+/7-AAD+) phenotype” value is 30%. Also, in test [2] (setting [5]), the “apoptotic phenotype (annexin V+, 7-AAD−)” value was 64% and the “necrotic phenotype (annexin V+, 7-AAD+)” value is on record as 32%. In the test with MT-2 cells (iCasp9M-transduced MT-2), the “apoptosis (annexin-V staining)” value was determined as 57.9%+/−11.9%. In the test with MT-2 cells (iFas-transduced MT-2), the “apoptosis (annexin-V staining)” value is given as 19.3%+/−8.4%. In the test on virus-specific T cells, the “effect on virus-specific T cells” value is “spares (and thereby enriches) viral reactive subpopulations”. Further, the “apoptosis (annexin-V staining)” value in the test on Jurkat cells (iCasp9M-transduced Jurkat) amounted to 57.2%+/−18.9%. Besides, the “apoptosis (annexin-V staining)” value in the test on Jurkat cells (iFas-transduced Jurkat) was determined as 56.4%+/−15.6%. Further, in test [3] (CTLs that survived CID treatment), the “reduction in mean fluorescence intensity of GFP after CID” value turned out to be 70%. For the same compound, in test [3] (F-Casp9M.I.GFPhigh, survival of GFP+ cells on day 7), the “CID sufficient to obtain the maximal deletion effect” value is on record as 1 nM. Besides, the “Elimination of GFP+ cells” value in test [3] (iCasp9M-transduced CTLs, GFPhigh, 1:1 with nontransduced, 10 nM CID, day 7) worked out at 99.2%+/−0.14%. In addition, in test [3] (single 10-nM dose of CID, unselected iCasp9M CTLs, 5 donors), the “GFP+ cells eliminated” value is 91.3%. The “apoptosis index of iCasp9-negative cells” value in the test with iCasp9-transduced MSCs (50 nM CID, 24 hrs) came out at 20±7%. Moreover, in the test with iCasp9-transduced MSCs (50 nM CID, representative FACS), the “annexin positive, negative population (iCasp neg/CID)” value is 19% and the “annexin positive, non-transduced control MSC (Control/CID)” value is listed as 15%. In addition, in the test on iCasp9-transduced MSCs (50 nM CID, within 24 hrs), the “apoptotic death of iCasp9-positive cells” value stood at 93±1%. For the same compound, the “immunoselected iCasp9-CD19-positive cells apoptotic after CID” value with iCasp9-transduced MSCs (magnetic immunoselection) is reported as “More than 95%”.
